Laboratory results published in ChEMBL document CHEMBL1201862, “PubChem BioAssay data set” (2004).
Active and inactive are the calls of the source.

Experiments:
[1] = A549 cell cytotoxicity, dose response, cytotoxicity control, cherry-picks, 26 µM top dose (AID 1053119); type: functional, cell-based
[2] = molecular target: E3 ubiquitin-protein ligase UHRF1 (Homo sapiens, UniProt Q96T88); assay: Counterscreen for inhibitors of 5-meCpG-binding domain protein 2 (MBD2): TRFRET-based biochemical high throughput dose response assay to identify inhibitors of binding of ubiquitin-like with PHD and ring finger domains 1 (UHRF1) to methylated oligonucleotide.
E3 ubiquitin-protein ligase UHRF1, sequence (Q96T88 whole entry, the tested form may be a part): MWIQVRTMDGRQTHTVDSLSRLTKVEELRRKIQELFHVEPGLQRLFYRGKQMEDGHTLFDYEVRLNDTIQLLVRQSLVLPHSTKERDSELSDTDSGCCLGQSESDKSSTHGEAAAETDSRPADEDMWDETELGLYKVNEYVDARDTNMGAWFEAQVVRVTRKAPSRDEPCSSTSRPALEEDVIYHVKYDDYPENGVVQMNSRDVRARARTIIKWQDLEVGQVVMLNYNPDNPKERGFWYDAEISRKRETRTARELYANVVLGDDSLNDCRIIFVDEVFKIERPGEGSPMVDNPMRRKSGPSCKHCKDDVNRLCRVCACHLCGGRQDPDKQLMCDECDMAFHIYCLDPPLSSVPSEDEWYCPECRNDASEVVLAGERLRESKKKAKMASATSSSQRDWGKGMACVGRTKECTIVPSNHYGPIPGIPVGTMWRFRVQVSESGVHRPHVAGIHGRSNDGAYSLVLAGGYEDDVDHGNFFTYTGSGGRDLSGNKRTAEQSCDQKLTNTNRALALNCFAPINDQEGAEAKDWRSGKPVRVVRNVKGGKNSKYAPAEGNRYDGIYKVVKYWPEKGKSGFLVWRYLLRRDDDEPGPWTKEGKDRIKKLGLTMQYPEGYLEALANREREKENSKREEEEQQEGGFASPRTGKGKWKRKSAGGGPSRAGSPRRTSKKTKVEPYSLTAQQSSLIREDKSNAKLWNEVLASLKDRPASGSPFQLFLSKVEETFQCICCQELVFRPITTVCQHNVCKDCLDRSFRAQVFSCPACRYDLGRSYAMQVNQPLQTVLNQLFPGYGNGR

cells [3] = type: functional, cell-based
[4] = molecular target: T1, Trace amine-associated receptor 1 (Homo sapiens, UniProt Q96RJ0); assay: Fluorescence-based cell-based high throughput dose response assay to identify agonists of the human trace amine associated receptor 1 (TAAR1).; type: functional
T1 sequence (Q96RJ0 whole entry): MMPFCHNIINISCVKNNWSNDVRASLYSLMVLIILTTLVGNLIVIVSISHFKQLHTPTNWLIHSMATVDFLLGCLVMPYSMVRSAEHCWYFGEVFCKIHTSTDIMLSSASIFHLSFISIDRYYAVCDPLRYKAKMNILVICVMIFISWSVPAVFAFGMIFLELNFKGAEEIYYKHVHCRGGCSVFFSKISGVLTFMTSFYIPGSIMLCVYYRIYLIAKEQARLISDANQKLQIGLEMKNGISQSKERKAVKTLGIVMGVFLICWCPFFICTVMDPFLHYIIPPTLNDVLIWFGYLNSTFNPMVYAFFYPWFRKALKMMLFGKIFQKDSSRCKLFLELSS

[5] = molecular target: T1, Trace amine-associated receptor 1; assay: Counterscreen for agonists of the human trace amine associated receptor 1 (hTAAR1): Fluorescence-based cell-based high throughput dose response assay to identify hTAAR1 agonist that also desensitize TAAR1 receptor response.; type: functional
cells [6] = type: functional, cell-based; remark: listed apart in the source
[7] = inhibitors of SNCA 5'UTR-driven reporter translation, confirmation, H4 neuroglioma cells, luminescence (AID 1988); type: functional, cell-based
[8] = Luminescence-based dose response cell-based high throughput screening assay for cytotoxic compounds using the IEC-6 intestinal epithelial cell line. [Related pubchem assays: 1858 (Summary AID.), 1825 (Counterscreen.), 1907 (Confirmation screen.)]; type: functional
[9] = IGROV1 ovarian cancer cell cytotoxicity, dose response, PAX8 inhibitor project, plate reader, dry powder samples (AID 743043); type: functional, cell-based; conditions: IGROV-1
Paired box protein Pax-8 = Paired box protein Pax-8 (Homo sapiens, UniProt Q06710); assay: inhibitors of PAX8-driven TPO luciferase reporter, dose response, RMG-I cells, cherry-pick (AID 687027); type: functional, cell-based;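 note: luciferase reporter driven by Pax8 target thyroperoxidase promoter measured by SteadyGlo luminescence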
Paired box protein Pax-8, sequence (Q06710 whole entry): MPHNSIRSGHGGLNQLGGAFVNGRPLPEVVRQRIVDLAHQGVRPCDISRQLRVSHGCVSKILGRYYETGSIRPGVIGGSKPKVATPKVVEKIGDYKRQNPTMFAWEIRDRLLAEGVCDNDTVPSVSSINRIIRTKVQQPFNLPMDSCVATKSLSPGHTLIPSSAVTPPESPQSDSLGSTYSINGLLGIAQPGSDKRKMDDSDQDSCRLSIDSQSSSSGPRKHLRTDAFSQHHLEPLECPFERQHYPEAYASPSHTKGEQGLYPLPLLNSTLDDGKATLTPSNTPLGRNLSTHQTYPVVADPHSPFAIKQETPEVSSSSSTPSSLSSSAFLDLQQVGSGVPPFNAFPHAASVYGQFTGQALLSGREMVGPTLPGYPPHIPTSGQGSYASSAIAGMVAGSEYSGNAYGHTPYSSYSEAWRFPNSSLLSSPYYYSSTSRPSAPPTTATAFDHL

BJ [10] = assay: cytotoxicity toward BJ-TERT fibroblasts, dose response, cell-based, RAS-independent, luminescence (AID 1933); type: functional; conditions: Homo sapiens
[11] = Luminescence Cell-Based Dose Response HTS to Identify Inhibitors of 5'UTR Stem-Loop Driven Prion Protein mRNA Translation in H4 Neuroglioblastoma Cells. [Related pubchem assays: 1827 (Project Summary), 1813 (Primary HTS)]; type: functional
[12] = cytotoxicity in COV434 cells, dose response, cytotoxicity control for PAX8 inhibitor project, cell-based, plate reader, dry powder, SA7 (AID 743145); type: functional
BJ [13] = assay: cytotoxicity toward BJ-TERT-LT-ST fibroblasts, dose response, cell-based, RAS-independent, luminescence (AID 1935); type: functional; conditions: Homo sapiens;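 note: BJ fibroblasts immortalized with TERT plus LT and ST oncogenes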
[14] = A2780 ovarian cancer cell cytotoxicity, dose response, cytotoxicity control, plate reader, dry powder samples (AID 743046); type: functional, cell-based
[15] = cytotoxicity in OV-90 ovarian cancer cells, dose response, PAX8 inhibitor project, cell-based, plate reader, dry powder, SA8 (AID 743149); type: functional
[16] = PAX5 activity inhibitors, dose response, selectivity assay for PAX8 inhibitor project, cell-based, plate reader, dry powder samples (AID 743047); type: functional;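 note: HEK293 cells carrying a Pax5 driven CD19 promoter luciferase reporter; potency of inhibitors that lower reporter luminescence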
[17] = cytotoxicity in OVCAR4 cells, dose response, cytotoxicity control for PAX8 inhibitor project, cell-based, plate reader, dry powder, SA11 (AID 743150); type: functional; conditions: OVCAR-4
[18] = IOSE-T80 ovarian epithelial cell cytotoxicity, dose response, cytotoxicity control for PAX8 inhibitor project, plate reader, dry powder samples (AID 743045); type: functional, cell-based
BJ [19] = assay: cytotoxicity toward Ras-transformed BJeLR fibroblasts, dose response, cell-based, alamar blue fluorescence, cherrypicked samples (AID 2631); type: functional; conditions: Homo sapiens;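 note: confirmatory dose-response assay in RAS-dependent BJ fibroblasts engineered with TERT, LT and ST, with cytotoxicity read by fluorescence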
BJ [20] = assay: cells; type: functional, cell-based; conditions: Homo sapiens
[21] = NIH:OVCAR-3 ovarian cancer cell cytotoxicity, dose response, PAX8 inhibitor project, plate reader, dry powder samples (AID 743044); type: functional, cell-based
[22] = cytotoxicity in COV362 ovarian cancer cells, dose response, cytotoxicity control for PAX8 inhibitor project, cell-based, plate reader, dry powder, SA12 (AID 743144); type: functional
[23] = inhibitors of firefly luciferase expression or activity, dose response, H4 neuroglioma cells, luminescence (AID 1990); type: functional, cell-based
[24] = cytotoxicity toward DRD oncogenic fibroblasts, dose response, cell-based, non-viral oncogenic, luminescence (AID 1934); type: functional; conditions: Homo sapiens
[25] = cytotoxicity dependent on PAX8, dose response, cell-based, plate reader, dry powder (AID 743049); type: functional
[26] = PAX2 cell-based inhibition, dose response, selectivity assay for PAX8 inhibitor project, plate reader, dry powder samples (AID 743048); type: functional;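 note: HEK293 cells carrying a WT1 promoter luciferase reporter driven by expressed Pax2; potency is for inhibition of Pax2 driven reporter signal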
[27] = molecular target: T2, Eukaryotic translation initiation factor 2-alpha kinase 3 (Homo sapiens, UniProt Q9NZJ5); assay: Dose response cell-based high-throughput screening assay to measure PERK inhibition. [Related pubchem assays: 1416 ]; type: functional
T2 sequence (Q9NZJ5 whole entry): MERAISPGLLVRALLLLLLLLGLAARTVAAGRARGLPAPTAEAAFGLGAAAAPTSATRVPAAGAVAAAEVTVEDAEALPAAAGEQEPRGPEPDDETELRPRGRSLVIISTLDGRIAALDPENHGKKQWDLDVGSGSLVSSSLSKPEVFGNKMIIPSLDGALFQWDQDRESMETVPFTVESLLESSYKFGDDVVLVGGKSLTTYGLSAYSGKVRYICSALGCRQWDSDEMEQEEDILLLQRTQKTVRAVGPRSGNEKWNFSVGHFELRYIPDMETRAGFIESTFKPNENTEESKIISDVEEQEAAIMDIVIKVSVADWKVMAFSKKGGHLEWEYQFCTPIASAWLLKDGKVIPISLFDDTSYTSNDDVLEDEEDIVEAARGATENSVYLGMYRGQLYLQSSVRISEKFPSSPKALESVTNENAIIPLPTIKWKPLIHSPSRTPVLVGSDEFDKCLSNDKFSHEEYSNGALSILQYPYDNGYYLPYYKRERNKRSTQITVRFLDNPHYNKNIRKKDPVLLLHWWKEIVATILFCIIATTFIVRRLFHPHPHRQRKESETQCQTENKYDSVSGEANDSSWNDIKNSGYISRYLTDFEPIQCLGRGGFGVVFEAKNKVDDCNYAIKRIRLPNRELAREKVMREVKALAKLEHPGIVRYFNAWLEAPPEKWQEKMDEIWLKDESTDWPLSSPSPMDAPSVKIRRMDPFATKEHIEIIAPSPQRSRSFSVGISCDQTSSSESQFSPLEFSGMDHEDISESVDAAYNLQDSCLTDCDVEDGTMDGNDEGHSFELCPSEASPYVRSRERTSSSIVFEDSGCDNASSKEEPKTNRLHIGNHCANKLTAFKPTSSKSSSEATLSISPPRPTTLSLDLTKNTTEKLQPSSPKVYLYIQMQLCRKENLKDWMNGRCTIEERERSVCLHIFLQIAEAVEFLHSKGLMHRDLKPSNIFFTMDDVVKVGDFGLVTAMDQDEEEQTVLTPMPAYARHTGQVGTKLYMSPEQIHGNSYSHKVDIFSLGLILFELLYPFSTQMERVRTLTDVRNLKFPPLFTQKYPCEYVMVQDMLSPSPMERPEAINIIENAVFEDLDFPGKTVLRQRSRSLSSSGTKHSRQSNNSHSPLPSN

[28] = inhibitors of PGC1a acetylation in cells, dose response, cell-based, cherry-picked samples (AID 720514); type: functional;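 note: potency may reflect raised or lowered acetylation signal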
P388 = assay: cells; type: functional; conditions: Mus musculus
[29] = microbe, parasite or virus in culture; type: functional; conditions: Mycobacterium tuberculosis
SN12K1 = assay: cells; type: functional; conditions: Homo sapiens
[30] = THP-1 cell cytotoxicity, dose response, cytotoxicity control for non-replicating M. tuberculosis project (AID 489025); type: functional
[31] = Vero E6 cell cytotoxicity, dose response, cytotoxicity control for non-replicating M. tuberculosis project, secondary assay (AID 492998); type: functional, VeroE6; conditions: Vero C1008
[32] = HepG2 cell cytotoxicity, dose response, cytotoxicity control for non-replicating M. tuberculosis project (AID 489018); type: functional; conditions: Mycobacterium tuberculosis
[33] = cytotoxicity in HEK-293T NF-kB-Luc cells, dose response, cytotoxicity control for B/T-cell NF-kB inhibitor project, cell-based, uHTS hits (AID 489019); type: functional;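 note: IC50 reflects cytotoxicity as loss of cell viability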
Jurkat = assay: antigen receptor-induced NF-kB inhibitors, dose response, Jurkat, luciferase reporter, luminescence, B- and T-cell (AID 489004); type: functional, cell-based; conditions: Homo sapiens;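 note: NF-kB luciferase reporter Jurkat cells stimulated with PMA plus ionomycin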
P388/ADR = assay: cells; type: functional; conditions: Mus musculus
cells [34] = type: functional
[35] = molecular target: T2, Eukaryotic translation initiation factor 2-alpha kinase 3; assay: Counterscreen assay for PERK inhibitors: Dose response cell-based high throughput screening assay to measure inhibition of PERK at 6 hours. [Related pubchem assays: 1522, 1416 ]; type: functional
Albumin = Albumin (Bos taurus, UniProt P02769); assay: Counterscreen for inhibitors of T-cell receptor (TCR)-CD3 interaction: Fluorescence-based biochemical high throughput dose response assay to identify inhibitors of T-cell receptor (TCR)-CD3 interaction using a TAMRA-labeled BSA probe.; type: functional
Albumin, sequence (P02769 whole entry): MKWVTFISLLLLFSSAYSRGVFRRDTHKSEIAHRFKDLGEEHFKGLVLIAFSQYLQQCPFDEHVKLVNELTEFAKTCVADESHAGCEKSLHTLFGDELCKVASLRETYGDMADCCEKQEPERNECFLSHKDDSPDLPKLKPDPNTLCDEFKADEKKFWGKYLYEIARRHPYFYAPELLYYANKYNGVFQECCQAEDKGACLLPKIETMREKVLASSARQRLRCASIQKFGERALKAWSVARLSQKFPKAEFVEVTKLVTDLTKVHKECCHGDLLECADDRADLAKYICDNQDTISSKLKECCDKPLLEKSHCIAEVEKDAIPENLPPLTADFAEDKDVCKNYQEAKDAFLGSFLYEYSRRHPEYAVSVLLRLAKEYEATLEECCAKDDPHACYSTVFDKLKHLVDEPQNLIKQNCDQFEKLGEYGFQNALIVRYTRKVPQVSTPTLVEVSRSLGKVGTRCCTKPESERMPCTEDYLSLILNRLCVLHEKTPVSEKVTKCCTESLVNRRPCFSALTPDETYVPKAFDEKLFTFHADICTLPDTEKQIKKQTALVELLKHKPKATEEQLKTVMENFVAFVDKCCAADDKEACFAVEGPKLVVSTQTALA

[36] = ADAM10 inhibitors, peptide cleavage, dose response, biochemical, QFRET (AID 743254);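 note: ADAM10 enzyme with the DM2 quenched FRET peptide as substrate; EDANS fluorescence gain as the protease cuts the substrate; inhibitor potency against ADAM10 proteolytic activity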
[37] = molecular target: Disintegrin and metalloproteinase domain-containing protein 17 (Homo sapiens, UniProt P78536); assay: ADAM17 protease inhibitors, dose response, counter-screen for ADAM10 exosite inhibitor project, biochemical, quenched FRET substrate (AID 743253)
Disintegrin and metalloproteinase domain-containing protein 17, sequence (P78536 whole entry, the tested form may be a part): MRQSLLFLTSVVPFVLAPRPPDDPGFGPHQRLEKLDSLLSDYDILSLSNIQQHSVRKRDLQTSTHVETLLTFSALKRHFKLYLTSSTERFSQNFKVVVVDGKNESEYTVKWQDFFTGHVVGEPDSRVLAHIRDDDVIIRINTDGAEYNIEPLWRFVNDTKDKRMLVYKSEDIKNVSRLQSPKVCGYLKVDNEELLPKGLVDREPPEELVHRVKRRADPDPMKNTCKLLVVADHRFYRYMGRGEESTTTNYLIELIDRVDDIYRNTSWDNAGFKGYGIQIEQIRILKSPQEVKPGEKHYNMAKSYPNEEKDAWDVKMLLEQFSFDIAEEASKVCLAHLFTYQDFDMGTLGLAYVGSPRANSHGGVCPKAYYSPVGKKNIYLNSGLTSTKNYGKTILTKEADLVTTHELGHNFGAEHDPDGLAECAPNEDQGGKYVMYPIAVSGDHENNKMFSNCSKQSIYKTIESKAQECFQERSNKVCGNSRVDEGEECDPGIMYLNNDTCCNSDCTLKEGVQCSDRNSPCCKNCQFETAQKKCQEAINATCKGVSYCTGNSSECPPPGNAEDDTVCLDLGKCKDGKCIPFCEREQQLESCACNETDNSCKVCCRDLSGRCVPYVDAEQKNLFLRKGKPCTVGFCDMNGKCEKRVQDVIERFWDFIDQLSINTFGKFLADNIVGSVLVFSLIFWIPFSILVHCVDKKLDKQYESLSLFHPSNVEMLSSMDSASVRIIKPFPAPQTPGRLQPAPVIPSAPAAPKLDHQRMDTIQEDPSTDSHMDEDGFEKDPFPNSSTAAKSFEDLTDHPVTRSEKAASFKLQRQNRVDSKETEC

[38] = HepG2 cell cytotoxicity, dose response, cytotoxicity control, ATP luminescence, cherry-pick, set 6 (AID 1053125); type: functional, cell-based
cells [39] = conditions: HEK293

O=C(CN1CCCC1)Nc1ccc(Oc2ccc(NC(=O)CN3CCCC3)cc2)cc1
AC50 [1]: > 52 µM (inactive)

NC1=C(c2nc3ccccc3s2)C(=O)CN1NC(=O)c1c[nH]c2ccccc12
IC50 [2]: > 43.8 µM (inactive)

O=C(CSC1=Nc2ccc(F)cc2S(=O)(=O)N1)NCCc1ccccc1
EC50 (cells [3]): > 29.9 µM (inactive) | EC50 [4]: 621 nM (active) | IC50 [5]: 3.52 µM (active) | IC50 (cells [6]): > 29.9 µM (inactive)

CCN(CC)c1ccc2c(cc1=O)[C@@H](NC)CCc1cc(OC)c(OC)c(OC)c1-2
EC50 [7]: 350 nM (active) | IC50 [8]: 1.49 µM (active) | AC50 [9]: 5.6 µM (active) | AC50 (Paired box protein Pax-8): 2.9 µM (active) | EC50 (BJ [10]): 1.62 µM (active) | EC50 [11]: 684 nM (active) | AC50 [12]: 3.45 µM (active) | EC50 (BJ [13]): 1.07 µM (inconclusive) | AC50 [14]: 11.7 µM (active) | AC50 [15]: 1.63 µM (active) | AC50 [16]: 2.89 µM (active) | AC50 [17]: 3.39 µM (active) | AC50 [18]: 6.57 µM (active) | EC50 (BJ [19]): 343 nM (active) | EC50 (BJ [20]): 1.36 µM (inconclusive) | AC50 [21]: 7.15 µM (active) | AC50 [22]: 2.73 µM (active) | EC50 [23]: 1.03 µM (active) | EC50 [24]: 953 nM (active) | AC50 [25]: 6.61 µM (active) | AC50 [26]: 5.95 µM (active)

COc1cccc2c1C(CO)N1C(C#N)C3CC(C(=O)O)C(C1C2)N3C (stereo not given)
EC50 [27]: > 55.7 µM (not active) | AC50 [28]: 20.1 µM (active) | GI50 (P388): 416 nM (active) | CC50 [29]: 194 nM (active) | GI50 (SN12K1): 243 nM (active) | CC50 [30]: 153 nM (active) | CC50 [31]: 330 nM (active) | CC50 [32]: 925 nM (active) | IC50 [33]: > 80 µM (inactive) | IC50 (Jurkat): 340 nM (active) | GI50 (P388/ADR): < 38.4 nM (active) | IC50 (cells [34]): 2.76 µM (active) | EC50 [35]: > 55.7 µM (not active)

CN=C(S)NNC(=O)c1cccn(Cc2cccc(C(F)(F)F)c2)c1=O
IC50 (Albumin): > 94.1 µM (inactive)

O=C1NCN(c2ccccc2)C12CCN(C(c1cccc3ccccc13)c1nnnn1Cc1ccccc1)CC2 (stereo not given)
IC50 [36]: > 69.5 µM (inactive) | IC50 [37]: > 69.5 µM (inactive)

CC/C(C)=N\Nc1nc(-c2cc3cc(OC)ccc3oc2=O)cs1
AC50 [38]: > 52 µM (inactive) | AC50 (cells [39]): > 52 µM (inactive)
